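Values below derive from 48-hour exposures of cells grown in 96-well plates, with endpoints linearly interpolated between the two concentrations bracketing the appropriate inhibition level. At the GI50, growth is halved. Definition used: TGI = concentration required for complete inhibition of growth.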
Experiments:
Test in all cases: NCI-60 cell line screen, 48 h
HOP-92 NSCLC = test system: HOP-92 NSCLC
SW-620 colon = test system: SW-620 colon
DU-145 prostate = test system: DU-145 prostate
MDA-MB-231 breast = test system: MDA-MB-231 breast
HS 578T breast = test system: HS 578T breast
MDA-MB-435 = test system: MDA-MB-435
A498 renal = test system: A498 renal
COLO 205 colon = test system: COLO 205 colon
SK-OV-3 ovarian = test system: SK-OV-3 ovarian
A549 NSCLC = test system: A549 NSCLC
SK-MEL-2 melanoma = test system: SK-MEL-2 melanoma
UO-31 renal = test system: UO-31 renal
U251 CNS = test system: U251 CNS
CAKI-1 renal = test system: CAKI-1 renal
LOX IMVI melanoma = test system: LOX IMVI melanoma
HCT-15 colon = test system: HCT-15 colon
KM12 colon = test system: KM12 colon
MOLT-4 leukemia = test system: MOLT-4 leukemia
BT-549 breast = test system: BT-549 breast
786-0 renal = test system: 786-0 renal
HCC-2998 colon = test system: HCC-2998 colon
NCI-H460 lung = test system: NCI-H460 lung
HOP-62 NSCLC = test system: HOP-62 NSCLC
MCF7 breast = test system: MCF7 breast
RXF 393 renal = test system: RXF 393 renal
RPMI-8226 leukemia = test system: RPMI-8226 leukemia
NCI/ADR-RES ovarian = test system: NCI/ADR-RES ovarian
K-562 leukemia = test system: K-562 leukemia
NCI-H23 lung = test system: NCI-H23 lung
EKVX NSCLC = test system: EKVX NSCLC
IGROV1 ovarian = test system: IGROV1 ovarian
SNB-19 CNS = test system: SNB-19 CNS
SNB-75 CNS = test system: SNB-75 CNS
OVCAR-8 ovarian = test system: OVCAR-8 ovarian
M14 melanoma = test system: M14 melanoma
MALME-3M melanoma = test system: MALME-3M melanoma
SF-539 CNS = test system: SF-539 CNS
SF-268 CNS = test system: SF-268 CNS
OVCAR-4 ovarian = test system: OVCAR-4 ovarian
HCT-116 colon = test system: HCT-116 colon
SK-MEL-28 melanoma = test system: SK-MEL-28 melanoma
T-47D breast = test system: T-47D breast
CCRF-CEM leukemia = test system: CCRF-CEM leukemia
TK-10 renal = test system: TK-10 renal
OVCAR-3 ovarian = test system: OVCAR-3 ovarian
HT29 colon = test system: HT29 colon
UACC-62 melanoma = test system: UACC-62 melanoma
SK-MEL-5 melanoma = test system: SK-MEL-5 melanoma
SN12C renal = test system: SN12C renal
SF-295 CNS = test system: SF-295 CNS
PC-3 prostate = test system: PC-3 prostate
SR leukemia = test system: SR leukemia
NCI-H226 lung = test system: NCI-H226 lung
HL-60(TB) leukemia = test system: HL-60(TB) leukemia
UACC-257 melanoma = test system: UACC-257 melanoma
NCI-H522 lung = test system: NCI-H522 lung

For `Clc1ccc(C2=NN[C@H](c3cn(-c4ccccc4)nc3-c3ccccc3)C2)cc1`, the GI50 (HOP-92 NSCLC) was 2.24 µM, the TGI (HOP-92 NSCLC) was 6.88 µM and the GI50 (SW-620 colon) was 4.31 µM. It also gave a TGI (SW-620 colon) of 32 µM, a GI50 (DU-145 prostate) of 6.47 µM and a TGI (DU-145 prostate) of 28.2 µM. For the same molecule, the GI50 (MDA-MB-231 breast) was 5.91 µM, the TGI (MDA-MB-231 breast) was 24.9 µM and the GI50 (HS 578T breast) was 3.46 µM. It also gave a TGI (HS 578T breast) of 15.9 µM, a GI50 (MDA-MB-435) of 5.13 µM and a TGI (MDA-MB-435) of over 100 µM. It also gave a GI50 (A498 renal) of 2.93 µM, a TGI (A498 renal) of 8.77 µM and a GI50 (COLO 205 colon) of 4.63 µM. It also gave a TGI (COLO 205 colon) of 22.4 µM, a GI50 (SK-OV-3 ovarian) of 2.74 µM and a TGI (SK-OV-3 ovarian) of 8.75 µM. It also gave a GI50 (A549 NSCLC) of 3.37 µM, a TGI (A549 NSCLC) of 14.4 µM and a GI50 (SK-MEL-2 melanoma) of 4.85 µM. The TGI (SK-MEL-2 melanoma) was 16.3 µM, the GI50 (UO-31 renal) was 12.8 µM and the TGI (UO-31 renal) was over 100 µM. It also gave a GI50 (U251 CNS) of 3.17 µM, a TGI (U251 CNS) of 11.7 µM and a GI50 (CAKI-1 renal) of 10.4 µM. The TGI (CAKI-1 renal) was 44.9 µM, the GI50 (LOX IMVI melanoma) was 3.99 µM and the TGI (LOX IMVI melanoma) was 15.1 µM. The GI50 (HCT-15 colon) was 16.5 µM, the TGI (HCT-15 colon) was over 100 µM and the GI50 (KM12 colon) was 11.1 µM. For the same molecule, the TGI (KM12 colon) was over 100 µM, the GI50 (MOLT-4 leukemia) was 19.6 µM and the TGI (MOLT-4 leukemia) was over 100 µM. The GI50 (BT-549 breast) was 10.3 µM, the TGI (BT-549 breast) was 28.4 µM and the GI50 (786-0 renal) was 4.88 µM. It also gave a TGI (786-0 renal) of 18.6 µM, a GI50 (HCC-2998 colon) of 11.4 µM and a TGI (HCC-2998 colon) of over 100 µM. For the same molecule, the GI50 (NCI-H460 lung) was 4.22 µM, the TGI (NCI-H460 lung) was 16.9 µM and the GI50 (HOP-62 NSCLC) was 2.31 µM. For the same molecule, the TGI (HOP-62 NSCLC) was 5.76 µM, the GI50 (MCF7 breast) was 4.8 µM and the TGI (MCF7 breast) was 17.9 µM. The GI50 (RXF 393 renal) was 2.48 µM, the TGI (RXF 393 renal) was 8.08 µM and the GI50 (RPMI-8226 leukemia) was 14.1 µM. The TGI (RPMI-8226 leukemia) was over 100 µM, the GI50 (NCI/ADR-RES ovarian) was 3.17 µM and the TGI (NCI/ADR-RES ovarian) was 12.7 µM. For the same molecule, the GI50 (K-562 leukemia) was 4.8 µM, the TGI (K-562 leukemia) was over 100 µM and the GI50 (NCI-H23 lung) was 5.27 µM. For the same molecule, the TGI (NCI-H23 lung) was 23.4 µM, the GI50 (EKVX NSCLC) was 3.16 µM and the TGI (EKVX NSCLC) was 18.8 µM. For the same molecule, the GI50 (IGROV1 ovarian) was 6.28 µM, the TGI (IGROV1 ovarian) was 33.2 µM and the GI50 (SNB-19 CNS) was 7.08 µM. The TGI (SNB-19 CNS) was 24.8 µM, the GI50 (SNB-75 CNS) was 2.15 µM and the TGI (SNB-75 CNS) was 5.29 µM. The GI50 (OVCAR-8 ovarian) was 2.74 µM, the TGI (OVCAR-8 ovarian) was 8.29 µM and the GI50 (M14 melanoma) was 7.67 µM. It also gave a TGI (M14 melanoma) of 32.1 µM, a GI50 (MALME-3M melanoma) of 5.66 µM and a TGI (MALME-3M melanoma) of over 100 µM. The GI50 (SF-539 CNS) was 8.95 µM, the TGI (SF-539 CNS) was 23 µM and the GI50 (SF-268 CNS) was 5.71 µM. For the same molecule, the TGI (SF-268 CNS) was 21.2 µM, the GI50 (OVCAR-4 ovarian) was 4.87 µM and the TGI (OVCAR-4 ovarian) was 34.3 µM. The GI50 (HCT-116 colon) was 2.03 µM, the TGI (HCT-116 colon) was 4.01 µM and the GI50 (SK-MEL-28 melanoma) was 2.65 µM. The TGI (SK-MEL-28 melanoma) was 6.69 µM, the GI50 (T-47D breast) was 3.91 µM and the TGI (T-47D breast) was 18.8 µM. For the same molecule, the GI50 (CCRF-CEM leukemia) was 8.23 µM, the TGI (CCRF-CEM leukemia) was 45.3 µM and the GI50 (TK-10 renal) was 5.87 µM. For the same molecule, the TGI (TK-10 renal) was 18.6 µM, the GI50 (OVCAR-3 ovarian) was 2.54 µM and the TGI (OVCAR-3 ovarian) was 5.52 µM. It also gave a GI50 (HT29 colon) of 5.76 µM, a TGI (HT29 colon) of 55.8 µM and a GI50 (UACC-62 melanoma) of 7.06 µM. The TGI (UACC-62 melanoma) was 28.4 µM, the GI50 (SK-MEL-5 melanoma) was 19 µM and the TGI (SK-MEL-5 melanoma) was over 100 µM. For the same molecule, the GI50 (SN12C renal) was 3.61 µM, the TGI (SN12C renal) was 17.2 µM and the GI50 (SF-295 CNS) was 3.36 µM. It also gave a TGI (SF-295 CNS) of 13.2 µM, a GI50 (PC-3 prostate) of 3.68 µM and a TGI (PC-3 prostate) of 14.6 µM. The GI50 (SR leukemia) was 11.4 µM, the TGI (SR leukemia) was over 100 µM and the GI50 (NCI-H226 lung) was 5.96 µM. For the same molecule, the TGI (NCI-H226 lung) was 25.4 µM, the GI50 (HL-60(TB) leukemia) was 19.8 µM and the TGI (HL-60(TB) leukemia) was over 100 µM. For the same molecule, the GI50 (UACC-257 melanoma) was 4.91 µM, the TGI (UACC-257 melanoma) was 37.5 µM and the GI50 (NCI-H522 lung) was 4.64 µM. The TGI (NCI-H522 lung) was 28.4 µM.

— PubChem BioAssay (NCI)
